Among the test systems are Escherichia coli 780; Escherichia coli 804; Staphylococcus aureus 75; Fusarium graminearum; Bacillus cereus; Escherichia coli; Leuconostoc lactis; Listeria innocua; Micrococcus luteus; Pasteurella multocida; Staphylococcus aureus; Streptococcus uberis; Candida albicans.
Holding throughout (test): ≥ marks a high value that may be exact or a test limit, other limits are often not marked, values filed in µg/mL are converted to µM
The test system of assay [1] is Escherichia coli ATCC 25922.
Assay [2] deals with Yersinia enterocolitica ATCC 23715.
The subject of assay [3] is Acinetobacter baumannii 97830.
For assay [4], the system named is Acinetobacter baumannii 9931.
In assay [5] the test system is Acinetobacter baumannii ATCC 19606.
The test system of assay [6] is Bacillus subtilis ATCC 23857.
For assay [7], the system named is Klebsiella pneumoniae ATCC 700603.
Assay [8] relates to Pseudomonas aeruginosa 50.
The subject of assay [9] is Pseudomonas aeruginosa 73.
The subject of assay [10] is Pseudomonas aeruginosa ATCC 27853.
Assay [11] concerns Pseudomonas aeruginosa ATCC 9027.
The test system of assay [12] is Staphylococcus aureus 113.
For assay [13], the system named is Staphylococcus aureus ATCC 29213.
The test system of assay [14] is Staphylococcus epidermidis ATCC 12228.
For assay [15], the system named is Bacillus licheniformis X39.
The test system of assay [16] is Rhodococcus rhodochrous X15.
In assay [17] the test system is Staphylococcus aureus ATCC 2592.
Assay [18] has as its system Staphylococcus carnosus KHS.
The subject of assay [19] is Candida albicans TIMM 0144.
Assay [20] concerns Staphylococcus aureus JCM 2151.
In assay [21] the test system is Trichophyton mentagrophytes TIMM 1189.
For assay [22], the system named is Staphylococcus epidermidis.
In assay [23] the test system is Bacillus subtilis CCT 2471.
In assay [24] the test system is Enterobacter cloacae ATCC 23355.
For assay [25], the system named is Escherichia coli CCT 1371.
Assay [26] deals with Klebsiella pneumoniae ATCC 13883.
Assay [27] relates to Staphylococcus aureus ATCC 6535.
The subject of assay [28] is Staphylococcus saprophyticus.
In assay [29] the test system is Bifidobacterium longum subsp. infantis.

Converted amounts (≈) assume the structure as drawn. “And” between values parts separate entries of the source, which are not always exact repeats. Equal entries are not always repeated. Some results are limits rather than exact numbers.

In the case of `CC[C@H](C)[C@H](NC(=O)[C@@H]1CCCN1C(=O)[C@H](CC(N)=O)NC(=O)[C@H](Cc1cnc[nH]1)NC(=O)[C@@H](NC(=O)[C@@H]1CCCN1C(=O)[C@H](C)NC(=O)[C@H](CC(C)C)NC(=O)[C@@H]1CCCN1C(=O)[C@H](CCC(N)=O)NC(=O)[C@@H](NC(=O)[C@@H](NC(=O)[C@@H]1CCCN1C(=O)[C@@H](N)Cc1ccc(O)cc1)C(C)C)[C@@H](C)O)C(C)C)C(=O)N[C@@H](CO)C(=O)O` [YPVTQPLAPVHNPIS], the MIC amounted to 1.91 µM (≈ 3.13 µg/mL) in [1] and 3.83 µM (≈ 6.25 µg/mL) in assay [2].

As for `NCC(=O)N[C@@H](Cc1c[nH]c2ccccc12)C(=O)N[C@@H](CCCN=C(N)N)C(=O)N[C@@H](Cc1c[nH]c2ccccc12)C(=O)N[C@@H](Cc1c[nH]c2ccccc12)C(=O)N[C@@H](Cc1c[nH]c2ccccc12)C(=O)N[C@@H](CCCN=C(N)N)C(=O)N[C@@H](Cc1c[nH]c2ccccc12)C(=O)NCC(N)=O` [GWRWWWRWG], the MIC in assay [3] turned out to be 16 µM (≈ 22 µg/mL); in assay [4], 8 µM (≈ 11 µg/mL); in assay [5], 32 µM (≈ 44 µg/mL); in assay [6], 4 µM (≈ 5.5 µg/mL); against Escherichia coli 780 it was 8 µM (≈ 11 µg/mL); with Escherichia coli 804 it was 16 µM (≈ 22 µg/mL). Besides, the minimum inhibitory concentration (MIC) was 32 µM (≈ 44 µg/mL) in [7]; not below 32 µM in [8]; not below 32 µM in [9]; 64 µM (≈ 88 µg/mL) in assay [10]; 64 µM (≈ 88 µg/mL) in assay [11]; 8 µM (≈ 11 µg/mL) in [12]. Besides, the MIC (with Staphylococcus aureus 75; in assay [13]; in assay [14]) was 8 µM (≈ 11 µg/mL) throughout.

For the compound `CC[C@H](C)[C@H](NC(=O)[C@H](CC(C)C)NC(=O)CNC(=O)[C@H](C)NC(=O)[C@H](CC(C)C)NC(=O)[C@@H](N)Cc1ccccc1)C(=O)NCC(=O)NCC(=O)N[C@@H](CC(C)C)C(=O)N[C@@H](C)C(=O)N[C@@H](CCCCN)C(=O)N[C@@H](CCSC)C(=O)N[C@@H](CC(C)C)C(N)=O` [FLAGLIGGLAKML], the MIC in [15] worked out at 19 µM (≈ 24.8 µg/mL); in assay [16], 4.8 µM (≈ 6.25 µg/mL); in [17], 9.5 µM (≈ 12.4 µg/mL); in assay [18] it was 9.5 µM (≈ 12.4 µg/mL).

For `NC(=O)C[C@H](NC(=O)CNC(=O)[C@H](Cc1ccccc1)NC(=O)[C@@H](N)Cc1c[nH]c2ccccc12)C(=O)N[C@@H](CS)C(=O)NCC(=O)N[C@@H](CC(N)=O)C(=O)N1CCC[C@H]1C(=O)N[C@@H](CCCN=C(N)N)C(=O)N[C@@H](Cc1cnc[nH]1)C(=O)N[C@@H](CS)C(=O)NCC(=O)O` [WFGNCGNPRHCG], in the assay on Fusarium graminearum, the MIC was not below 70 µM.

`CC(=O)N[C@@H](CCCN=C(N)N)C(=O)N[C@@H](CCCN=C(N)N)C(=O)N[C@@H](Cc1c[nH]c2ccccc12)C(=O)N[C@@H](Cc1c[nH]c2ccccc12)C(=O)N[C@@H](CS)C(=O)N[C@@H](CCCN=C(N)N)C(N)=O` [RRWWCR]: the MIC in assay [19] was not below 52 µM; in assay [20], 26 µM and 12.5 µM; in [21], 6.24 µM (≈ 6.26 µg/mL).

Consider `CC[C@H](C)[C@H](NC(=O)[C@H](CO)NC(=O)CNC(=O)[C@@H](NC(=O)[C@H](CC(C)C)NC(=O)CN)[C@@H](C)CC)C(=O)NCC(=O)N[C@@H](CCCCN)C(=O)N[C@@H](C)C(=O)N[C@@H](CC(C)C)C(=O)NCC(=O)NCC(=O)N[C@@H](CC(C)C)C(=O)N[C@@H](CC(C)C)C(=O)N[C@H](C(=O)N[C@@H](CC(=O)O)C(=O)N[C@H](C(=O)N[C@@H](CC(C)C)C(=O)N[C@@H](CCCCN)C(=O)N1CCC[C@H]1C(=O)N[C@@H](CCCCN)C(=O)N[C@@H](CC(C)C)C(=O)O)C(C)C)C(C)C` [GLIGSIGKALGGLLVDVLKPKL], for which the MIC with Bacillus cereus is not below 46.3 µM; with Escherichia coli it was more than 46.3 µM; with Leuconostoc lactis, 23.1 µM (≈ 50 µg/mL); against Listeria innocua, not below 46.3 µM; against Micrococcus luteus, not below 46.3 µM; with Pasteurella multocida, not below 46.3 µM. Also, the MIC against Staphylococcus aureus is more than 46.3 µM; in assay [22] it was not below 46.3 µM; against Streptococcus uberis it was not below 46.3 µM.

Take `CC[C@H](C)[C@H](NC(=O)[C@H](CO)NC(=O)[C@@H](NC(=O)[C@H](CCCCN)NC(=O)[C@H](Cc1ccccc1)NC(=O)[C@@H]1CCCN1C(=O)[C@@H](N)[C@@H](C)O)[C@@H](C)CC)C(=O)N[C@@H](Cc1cnc[nH]1)C(=O)N[C@@H](CC(C)C)C(N)=O` [TPFKISIHL]: the MIC in assay [23] was 28.4 µM (≈ 30 µg/mL); against Candida albicans it was 2.37 µM (≈ 2.5 µg/mL); in assay [24] it was 14.2 µM (≈ 15 µg/mL); in [25] it was 14.2 µM (≈ 15 µg/mL); in [26], 14.2 µM (≈ 15 µg/mL); in assay [10], 14.2 µM (≈ 15 µg/mL). Further, the MIC in assay [27] is 14.2 µM (≈ 15 µg/mL); in assay [28], 9.48 µM (≈ 9.99 µg/mL).

In the case of `NCCCC[C@H](NC(=O)CNC(=O)[C@H](Cc1ccccc1)NC(=O)[C@H](CCCCN)NC(=O)[C@@H](N)CCC(=O)O)C(=O)N[C@@H](CC(=O)O)C(=O)N[C@@H](CCCCN)C(=O)N[C@@H](CO)C(=O)N1CCC[C@H]1C(=O)N[C@@H](CCCCN)C(=O)N[C@@H](Cc1ccccc1)C(=O)N[C@@H](CCC(N)=O)C(=O)O` [EKFGKDKSPKFQ], the MIC in assay [29] was not below 2090 µM; against Escherichia coli, 2090 µM (≈ 3000 µg/mL); against Staphylococcus aureus it was 2090 µM (≈ 3000 µg/mL).

The values above are taken from DBAASP.
